Source: ChEMBL document CHEMBL5233233, “Histone deacetylase 3 (HDAC3) inhibitors as anticancer agents: A review” (Eur J Med Chem, 2020)
Each block holds one molecule with its values, some of them ahead of it.

What was measured:
Histone deacetylase 8 = target: T1, Histone deacetylase 8 (Homo sapiens, UniProt Q9BY41); test: Inhibition of human recombinant HDAC8 expressed in Escherichia coli BL21 (DE3) cells by using Boc-L-Lys(Ac)-AMC as substrate measured after 24 hrs by fluorescence based analysis
T1 sequence (Q9BY41 whole entry): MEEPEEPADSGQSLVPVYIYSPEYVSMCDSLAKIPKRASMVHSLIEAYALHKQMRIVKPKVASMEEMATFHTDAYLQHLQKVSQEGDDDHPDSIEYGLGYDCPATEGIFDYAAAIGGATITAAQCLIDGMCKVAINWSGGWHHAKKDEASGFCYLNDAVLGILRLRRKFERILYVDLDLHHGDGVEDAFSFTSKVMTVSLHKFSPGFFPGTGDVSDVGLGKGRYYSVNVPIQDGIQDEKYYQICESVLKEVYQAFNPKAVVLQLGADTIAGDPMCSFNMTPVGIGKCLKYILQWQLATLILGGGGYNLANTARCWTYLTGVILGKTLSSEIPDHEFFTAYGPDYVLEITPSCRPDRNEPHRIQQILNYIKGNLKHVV

Histone deacetylase 2 [1] = target: T2, Histone deacetylase 2 (Homo sapiens, UniProt Q92769); test: Inhibition of human recombinant HDAC2 expressed in baculovirus by using Boc-L-Lys(Ac)-AMC as substrate measured after 24 hrs by fluorescence based analysis
T2 sequence (Q92769 whole entry): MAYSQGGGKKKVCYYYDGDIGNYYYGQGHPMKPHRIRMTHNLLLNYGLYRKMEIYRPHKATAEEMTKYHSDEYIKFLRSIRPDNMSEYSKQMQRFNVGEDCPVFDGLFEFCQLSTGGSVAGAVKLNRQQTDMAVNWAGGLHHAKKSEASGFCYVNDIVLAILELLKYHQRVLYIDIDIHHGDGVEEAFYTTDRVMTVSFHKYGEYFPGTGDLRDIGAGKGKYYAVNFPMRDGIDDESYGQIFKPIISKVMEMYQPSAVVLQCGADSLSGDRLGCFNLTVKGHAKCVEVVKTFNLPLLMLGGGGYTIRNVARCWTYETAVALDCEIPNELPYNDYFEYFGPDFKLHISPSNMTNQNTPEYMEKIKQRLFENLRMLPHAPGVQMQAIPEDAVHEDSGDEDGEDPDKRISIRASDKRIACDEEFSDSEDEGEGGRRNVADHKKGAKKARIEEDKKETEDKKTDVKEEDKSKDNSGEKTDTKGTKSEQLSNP

Histone deacetylase 3 [2] = target: T3, Histone deacetylase 3 (Homo sapiens, UniProt O15379); test: Inhibition of human recombinant HDAC3 expressed in baculovirus by using Boc-L-Lys(Ac)-AMC as substrate measured after 24 hrs by fluorescence based analysis
T3 sequence (O15379 whole entry): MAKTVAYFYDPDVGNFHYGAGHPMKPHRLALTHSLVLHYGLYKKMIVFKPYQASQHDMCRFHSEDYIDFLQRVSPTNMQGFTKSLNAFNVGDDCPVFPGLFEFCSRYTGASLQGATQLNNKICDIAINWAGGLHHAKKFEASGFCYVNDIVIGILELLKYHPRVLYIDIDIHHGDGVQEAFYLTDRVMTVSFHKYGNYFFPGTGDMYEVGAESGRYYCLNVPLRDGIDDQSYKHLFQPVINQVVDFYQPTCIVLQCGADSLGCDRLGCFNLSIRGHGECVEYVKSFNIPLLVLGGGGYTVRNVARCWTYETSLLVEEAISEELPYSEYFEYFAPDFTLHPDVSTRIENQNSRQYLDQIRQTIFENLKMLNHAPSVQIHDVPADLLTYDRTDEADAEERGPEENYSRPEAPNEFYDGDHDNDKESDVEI

Histone deacetylase 1 [3] = target: T4, Histone deacetylase 1 (Homo sapiens, UniProt Q13547); test: Inhibition of human recombinant HDAC1 expressed in baculovirus by using Boc-L-Lys(Ac)-AMC as substrate measured after 24 hrs by fluorescence based analysis
T4 sequence (Q13547 whole entry): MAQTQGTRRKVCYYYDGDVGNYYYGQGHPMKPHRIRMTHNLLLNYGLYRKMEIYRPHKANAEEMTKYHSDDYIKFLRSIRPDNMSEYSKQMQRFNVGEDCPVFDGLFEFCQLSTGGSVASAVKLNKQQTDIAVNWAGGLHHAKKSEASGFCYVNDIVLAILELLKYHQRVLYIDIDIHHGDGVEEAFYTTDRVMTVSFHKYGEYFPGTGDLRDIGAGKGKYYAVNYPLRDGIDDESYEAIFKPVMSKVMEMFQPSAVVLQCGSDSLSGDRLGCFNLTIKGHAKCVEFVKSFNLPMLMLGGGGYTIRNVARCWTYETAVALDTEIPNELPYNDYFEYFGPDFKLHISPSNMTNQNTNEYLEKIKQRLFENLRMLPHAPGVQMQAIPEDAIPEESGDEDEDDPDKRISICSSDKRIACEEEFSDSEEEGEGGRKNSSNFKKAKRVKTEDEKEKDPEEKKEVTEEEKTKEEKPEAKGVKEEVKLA

Histone deacetylase 1 [4] = target: T4, Histone deacetylase 1; test: Inhibition of human HDAC1 using human HeLa cell nuclear extract at 1 uM measured after 60 mins by fluorescence assay; assay type: subcellular, Nucleus
Histone deacetylase 3 [5] = target: T3, Histone deacetylase 3; test: Inhibition of human HDAC3 using human HeLa cell nuclear extract at 1 uM measured after 60 mins by fluorescence assay; assay type: subcellular, Nucleus
Histone deacetylase 2 [6] = target: T2, Histone deacetylase 2; test: Inhibition of human HDAC2 using human HeLa cell nuclear extract at 1 uM measured after 60 mins by fluorescence assay; assay type: subcellular, Nucleus
Histone deacetylase 2 [7] = target: T2, Histone deacetylase 2; test: Inhibition of HDAC2 (unknown origin) using acetylated 7-amino-4-methylcoumarin (AMC) as peptide substrate measured after 20 mins by fluorescence based analysis
Histone deacetylase 3 [8] = target: T3, Histone deacetylase 3; test: Inhibition of HDAC3 (unknown origin) using acetylated 7-amino-4-methylcoumarin (AMC) as peptide substrate measured after 20 mins by fluorescence based analysis
Histone deacetylase 1 [9] = target: T4, Histone deacetylase 1; test: Inhibition of HDAC1 (unknown origin) using acetylated 7-amino-4-methylcoumarin (AMC) as peptide substrate measured after 20 mins by fluorescence based analysis
Histone deacetylase = test: Inhibition of human HDAC using human HeLa cell nuclear extract measured after 60 mins by fluorescence assay; assay type: subcellular, Nucleus
Histone deacetylase 3 [10] = target: T3, Histone deacetylase 3; test: Inhibition of human HDAC3 using fluorogenic as substrate measured after 30 mins by fluorescence based analysis
Histone deacetylase 1 [11] = target: T4, Histone deacetylase 1; test: Inhibition of HDAC1 (unknown origin) using Boc-Lys (Ac)-AMC as substrate measured after 30 mins by fluorescence based analysis
[12] = target: T5, Protein deacetylase HDAC6 (Homo sapiens, UniProt Q9UBN7); test: Inhibition of HDAC6 (unknown origin) using Boc-Lys (Ac)-AMC as substrate measured after 30 mins by fluorescence based analysis
T5 sequence (Q9UBN7 whole entry): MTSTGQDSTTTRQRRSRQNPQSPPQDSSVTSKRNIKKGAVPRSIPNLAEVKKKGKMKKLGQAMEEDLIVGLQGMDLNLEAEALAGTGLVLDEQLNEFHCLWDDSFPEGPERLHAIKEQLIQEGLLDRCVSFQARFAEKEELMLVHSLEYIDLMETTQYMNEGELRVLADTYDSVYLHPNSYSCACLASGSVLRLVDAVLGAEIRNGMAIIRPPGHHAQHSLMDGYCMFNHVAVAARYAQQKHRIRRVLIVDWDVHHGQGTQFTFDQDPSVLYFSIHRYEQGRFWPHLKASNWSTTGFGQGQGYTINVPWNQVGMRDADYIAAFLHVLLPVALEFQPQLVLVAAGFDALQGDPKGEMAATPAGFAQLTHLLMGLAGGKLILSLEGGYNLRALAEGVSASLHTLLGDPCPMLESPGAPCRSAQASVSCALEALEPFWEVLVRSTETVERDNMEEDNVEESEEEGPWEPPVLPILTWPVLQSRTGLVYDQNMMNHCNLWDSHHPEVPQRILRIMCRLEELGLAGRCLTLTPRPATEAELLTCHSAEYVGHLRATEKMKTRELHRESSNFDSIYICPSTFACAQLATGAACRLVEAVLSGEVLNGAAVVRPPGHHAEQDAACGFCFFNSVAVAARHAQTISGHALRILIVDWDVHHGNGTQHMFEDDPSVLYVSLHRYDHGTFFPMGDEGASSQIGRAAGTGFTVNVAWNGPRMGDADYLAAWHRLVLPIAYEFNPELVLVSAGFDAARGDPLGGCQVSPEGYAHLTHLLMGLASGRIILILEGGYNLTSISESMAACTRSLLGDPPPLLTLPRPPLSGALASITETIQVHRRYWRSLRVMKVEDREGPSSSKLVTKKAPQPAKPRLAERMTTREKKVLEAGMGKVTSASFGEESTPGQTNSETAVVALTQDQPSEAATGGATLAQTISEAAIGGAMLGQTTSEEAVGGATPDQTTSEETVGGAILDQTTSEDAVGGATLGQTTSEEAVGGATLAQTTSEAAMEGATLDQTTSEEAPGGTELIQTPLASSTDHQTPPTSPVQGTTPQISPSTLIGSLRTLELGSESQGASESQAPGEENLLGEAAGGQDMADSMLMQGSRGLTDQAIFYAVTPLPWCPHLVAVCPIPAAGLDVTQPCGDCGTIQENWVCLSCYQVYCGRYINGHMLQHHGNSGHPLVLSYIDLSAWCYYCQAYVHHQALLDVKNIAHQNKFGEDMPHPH

Histone deacetylase 3 [13] = target: T3, Histone deacetylase 3; test: Inhibition of HDAC3 (unknown origin) using Boc-Lys (Ac)-AMC as substrate measured after 30 mins by fluorescence based analysis
Histone deacetylase 1 [14] = target: T4, Histone deacetylase 1; test: Inhibition of human HDAC1 using fluorogenic as substrate measured after 30 mins by fluorescence based analysis

IC50 (Histone deacetylase 8): 2.1 µM
IC50 (Histone deacetylase 2 [1]): 2.9 µM
IC50 (Histone deacetylase 3 [2]): 1 µM
IC50 (Histone deacetylase 1 [3]): 0.22 µM
Compound: O=C(CCCCCCNCc1ccc([N+](=O)[O-])cc1)NO

IC50 (Histone deacetylase 1 [4]): 0.314 µM
IC50 (Histone deacetylase 3 [5]): 0.062 µM
IC50 (Histone deacetylase 2 [6]): > 1 µM
Compound: Cc1ccccc1CCc1cn(CCCCCC(=O)NO)c2ccc(-c3c(C)noc3C)cc12

IC50 (Histone deacetylase 1 [4]): 0.341 µM
IC50 (Histone deacetylase 3 [5]): 0.039 µM
IC50 (Histone deacetylase 2 [6]): 0.517 µM
Compound: Cc1noc(C)c1-c1ccc2c(c1)c(Cc1ccc(F)cc1)cn2CCCCCC(=O)NO

IC50 (Histone deacetylase 2 [7]): > 50 µM
IC50 (Histone deacetylase 3 [8]): 24.2 µM
IC50 (Histone deacetylase 1 [9]): > 50 µM
Compound: O=C(NNCCCc1ccccc1)c1ccc(Br)cc1

IC50 (Histone deacetylase 8): 1.7 µM
IC50 (Histone deacetylase 2 [1]): 1.5 µM
IC50 (Histone deacetylase 3 [2]): 0.24 µM
IC50 (Histone deacetylase 1 [3]): 0.22 µM
Compound: O=C(CCCCCCNCc1ccc(F)cc1)NO

IC50 (Histone deacetylase 2 [7]): > 50 µM
IC50 (Histone deacetylase 3 [8]): > 50 µM
IC50 (Histone deacetylase 1 [9]): > 50 µM
Compound: O=C(NNCCCC1CCCC1)c1ccc(Br)cc1

IC50 (Histone deacetylase 1 [4]): 0.253 µM
IC50 (Histone deacetylase 3 [5]): 0.024 µM
IC50 (Histone deacetylase 2 [6]): 0.127 µM
Compound: Cc1cccc(Cc2cn(CCCCCCC(=O)NO)c3ccc(-c4c(C)noc4C)cc23)c1

IC50 (Histone deacetylase): 0.0143 µM
IC50 (Histone deacetylase 3 [10]): 0.0168 µM
Compound: O=C(NO)c1ccc(NC(=O)[C@@H](NC(=O)c2ccc3ccccc3c2)c2ccccc2)cc1

IC50 (Histone deacetylase 8): 2.8 µM
IC50 (Histone deacetylase 2 [1]): 0.79 µM
IC50 (Histone deacetylase 3 [2]): 0.19 µM
IC50 (Histone deacetylase 1 [3]): 0.14 µM
Compound: Cc1cc(CNCCCCCCC(=O)NO)ccc1F

IC50 (Histone deacetylase 8): 1.8 µM
IC50 (Histone deacetylase 2 [1]): 1.8 µM
IC50 (Histone deacetylase 3 [2]): 0.18 µM
IC50 (Histone deacetylase 1 [3]): 0.21 µM
Compound: COc1ccc(CNCCCCCCC(=O)NO)cc1OC

IC50 (Histone deacetylase 1 [11]): 0.032 µM
IC50 [12]: 0.017 µM
IC50 (Histone deacetylase 3 [13]): 0.125 µM
Compound: COC(=O)/C=C/c1ccc(OCCNc2cc3c([nH]c4ccccc43)c(-c3ccc(OC)cc3)n2)c(OC)c1

IC50 (Histone deacetylase 1 [4]): 0.181 µM
IC50 (Histone deacetylase 2 [6]): 0.298 µM
Compound: Cc1noc(C)c1-c1ccc2c(c1)c(Cc1ccc(F)cc1)cn2CCCCCCC(=O)NO

IC50 (Histone deacetylase 1 [4]): 0.222 µM
IC50 (Histone deacetylase 3 [5]): 0.062 µM
IC50 (Histone deacetylase 2 [6]): 0.568 µM
Compound: Cc1cccc(Cc2cn(CCCCCC(=O)NO)c3ccc(-c4c(C)noc4C)cc23)c1

IC50 (Histone deacetylase): 0.0137 µM
IC50 (Histone deacetylase 3 [10]): 0.0085 µM
IC50 (Histone deacetylase 1 [14]): 0.0118 µM
Compound: O=C(NO)c1ccc(NC(=O)[C@@H](NC(=O)c2cccc(Br)c2)c2ccccc2)cc1

IC50 (Histone deacetylase 8): 0.55 µM
IC50 (Histone deacetylase 2 [1]): 0.69 µM
IC50 (Histone deacetylase 3 [2]): 0.038 µM
IC50 (Histone deacetylase 1 [3]): 0.048 µM
Compound: O=C(CCCCCCNCc1ccc(-c2ccccc2)s1)NO

IC50 (Histone deacetylase 8): 4.6 µM
IC50 (Histone deacetylase 2 [1]): 3.7 µM
IC50 (Histone deacetylase 3 [2]): 1.3 µM
IC50 (Histone deacetylase 1 [3]): 0.34 µM
Compound: O=C(CCCCCCN(Cc1cc2ccccc2[nH]1)Cc1cc2ccccc2[nH]1)NO

IC50 (Histone deacetylase): 0.3486 µM
Compound: O=C(NO)c1ccc(NC(=O)[C@@H](NC(=O)c2ccc(Cl)cc2)c2ccccc2)cc1

IC50 (Histone deacetylase 1 [11]): 0.027 µM
IC50 [12]: 0.013 µM
IC50 (Histone deacetylase 3 [13]): 0.148 µM
Compound: COC(=O)/C=C/c1ccc(OCCCNc2cc3c([nH]c4ccccc43)c(-c3ccc(OC)cc3)n2)c(OC)c1

IC50 (Histone deacetylase 8): 0.62 µM
IC50 (Histone deacetylase 2 [1]): 0.26 µM
IC50 (Histone deacetylase 3 [2]): 0.025 µM
IC50 (Histone deacetylase 1 [3]): 0.061 µM
Compound: O=C(CCCCCCNCc1cc2ccccc2[nH]1)NO
